In US12662461B2, “Tricyclic compound and pharmaceutical use thereof” (JD BIOSCIENCE INC., priority 2019, dated 2026):
Structures can show the parent of a compound that is named as a salt.

Target: serotonin 2A (5-HT2A) receptor (Homo sapiens, UniProt P28223)
Assay: Measurement of inhibitory activity against serotonin 2A receptor (in vitro)
Assay type: biochemical
Conditions: inhibitory activity against serotonin 2A (5-HT2A) receptor
From the text: Experimental Example: Measurement of Inhibitory Activity Against Serotonin 2A Receptor

Sequence of serotonin 2A (5-HT2A) receptor (P28223 whole entry, species assumed): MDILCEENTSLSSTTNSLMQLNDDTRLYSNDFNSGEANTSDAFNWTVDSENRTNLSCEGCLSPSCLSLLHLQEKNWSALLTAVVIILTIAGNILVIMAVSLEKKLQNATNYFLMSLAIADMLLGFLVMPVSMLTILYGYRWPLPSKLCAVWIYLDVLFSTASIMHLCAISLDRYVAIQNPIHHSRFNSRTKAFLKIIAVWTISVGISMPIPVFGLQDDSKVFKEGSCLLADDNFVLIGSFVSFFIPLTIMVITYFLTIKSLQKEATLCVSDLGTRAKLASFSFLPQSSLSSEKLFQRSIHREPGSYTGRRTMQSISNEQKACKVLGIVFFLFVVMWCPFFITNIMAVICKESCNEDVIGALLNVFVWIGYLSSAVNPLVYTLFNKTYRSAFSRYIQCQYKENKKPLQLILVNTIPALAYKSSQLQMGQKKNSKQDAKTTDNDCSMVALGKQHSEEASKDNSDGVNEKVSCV

Row | SMILES | IC50 [nM]
1 | N[C@@H](Cc1ccc(OCCCCN2CCC(=C3c4ccc(Cl)cc4CCc4cccnc43)CC2)cc1)C(=O)O [Example 14, (S)-2-amino-3-(4-(4-(4-(8-chloro-5,6-dihydro-11H-benzo[5,6]cyclohepta[1,2-b]pyridin-11-ylidene)piperidin-1-yl)butoxy)phenyl)propionic acid trihydrochloride] | 188
2 | N[C@@H](Cc1ccc(OCCCCN2CCC(=C3c4ccc(Cl)cc4CCc4cccnc43)CC2)c(Cl)c1)C(=O)O [Example 20, (S)-2-amino-3-(3-chloro-4-(4-(4-(8-chloro-5,6-dihydro-11H-benzo[5,6]cyclohepta[1,2-b]pyridin-11-ylidene)piperidin-1-yl)butoxy)phenyl)propionic acid trihydrochloride] | 2.08
3 | CN1CCC(=C2c3ccc(Cl)cc3CCc3cccnc32)CC1 [Example 13, 8-chloro-11-(1-methylpiperidin-4-ylidene)-6,11-dihydro-5H-benzo[5,6]cyclohepta[1,2-b]pyridine] | 119
4 | O=C1CCc2ccc(OCCCCN3CCC(=C4c5ccc(Cl)cc5CCc5cccnc54)CC3)cc2N1 [Example 18, 7-(4-(4-(8-chloro-5,6-dihydro-11H-benzo[5,6]cyclohepta[1,2-b]pyridin-11-ylidene)piperidin-1-yl)butoxy)-3,4-dihydroquinolin-2(1H)-one] | 1.3
5 | O=c1[nH]c2ccccc2c(=O)n1CCN1CCC(=C2c3ccc(Cl)cc3CCc3cccnc32)CC1 [Example 12, 3-(2-(4-(8-chloro-5,6-dihydro-11H-benzo[5,6]cyclohepta[1,2-b]pyridin-11-ylidene)piperidin-1-yl)ethyl)quinazoline-2,4(1H,3H)-dione] | 47
6 | Cc1nc2sccn2c1C(O)CN1CCC(=C2c3ccc(Cl)cc3CCc3cccnc32)CC1 (stereo not shown) [Example 15, 2-(4-(8-chloro-5,6-dihydro-11H-benzo[5,6]cyclohepta[1,2-b]pyridin-11-ylidene)piperidin-1-yl)-1-(6-methylimidazo[2,1-b]thiazol-5-yl)ethan-1-ol] | 30

Continued, values first:

Row | IC50 [nM] | SMILES
7 | 1.19 | OC(CN1CCC(=C2c3ccc(Cl)cc3CCc3cccnc32)CC1)c1ccc(Br)cc1 (stereo not shown) [Example 27, 1-(4-bromophenyl)-2-(4-(8-chloro-5,6-dihydro-11H-benzo[5,6]cyclohepta [1,2-b]pyridin-11-ylidene)piperidin-1-yl)ethan-1-ol]
8 | 0.19 | O=C1C2CCCCC2C(=O)N1CCCCN1CCC(=C2c3ccc(Cl)cc3CCc3cccnc32)CC1 (stereo not shown) [Example 19, 2-(4-(4-(8-chloro-5,6-dihydro-11H-benzo[5,6]cyclohepta[1,2-b]pyridin-11-ylidene)piperidin-1-yl)butyl)hexahydro-1H-isoindole-1,3(2H)-dione]
9 | 0.15 | O=C1C2C(C(=O)N1CCCCN1CCC(=C3c4ccc(Cl)cc4CCc4cccnc43)CC1)[C@H]1CC[C@@H]2C1 (stereo partly drawn) [Example 30, (4R,7S)-2-(4-(4-(8-chloro-5,6-dihydro-11H-benzo[5,6]cyclohepta[1,2-b]pyridin-11-ylidene)piperidin-1-yl)butyl)hexahydro-1H-4,7-methanoisoindole-1,3(2H)-dione]
10 | 2.1 | N[C@@H](Cc1ccc(OCCCN2CCC(=C3c4ccc(Cl)cc4CCc4cccnc43)CC2)c(Cl)c1)C(=O)O [Example 21, (S)-2-amino-3-(3-chloro-4-(3-(4-(8-chloro-5,6-dihydro-11H-benzo[5,6]cyclohepta[1,2-b]pyridin-11-ylidene)piperidin-1-yl)propoxy)phenyl)propionic acid trihydrochloride]
11 | 30.8 | COc1cccc(CCc2ccccc2OCC(O)CN2CCC(=C3c4ccc(Cl)cc4CCc4cccnc43)CC2)c1 (stereo not shown) [Example 60, 1-(4-(8-chloro-5,6-dihydro-11H-benzo[5,6]cyclohepta[1,2-b]pyridin-11-ylidene)piperidin-1-yl)-3-(2-(3-methoxyphenethyl)phenoxy)propan-2-ol]
12 | 8.1 | O=C(CN1CCC(=C2c3ccc(Cl)cc3CCc3cccnc32)CC1)c1ccc(Br)cc1 [Example 24, 1-(4-bromophenyl)-2-(4-(8-chloro-5,6-dihydro-11H-benzo[5,6]cyclohepta[1,2-b]pyridin-11-ylidene)piperidin-1-yl)ethan-1-one]
13 | 1.3 | N[C@@H](Cc1ccc(OCCCN2CCC(=C3c4ccc(Cl)cc4CCc4cccnc43)CC2)cc1)C(=O)O [Example 22, (S)-2-amino-3-(4-(3-(4-(8-chloro-5,6-dihydro-11H-benzo[5,6]cyclohepta[1,2-b]pyridin-11-ylidene)piperidin-1-yl)propoxy)phenyl)propionic acid trihydrochloride]
